Assay results published in paper PMC11451537, “P2X7 receptors exhibit at least three modes of allosteric antagonism” (Science Advances, 2024).
Substitutions are numbered along the chain they refer to.

Tests used:
rP2X7-F88A = target: T1, rP2X7-F88A (Rattus norvegicus, UniProt Q64663, F88A); experiment: TEVC inhibition dose-response, rP2X7-F88A mutant; format: cell-based; settings: read-out: IC50 (inhibitory potency), F88A
T1 sequence (Q64663 1-595 F88A): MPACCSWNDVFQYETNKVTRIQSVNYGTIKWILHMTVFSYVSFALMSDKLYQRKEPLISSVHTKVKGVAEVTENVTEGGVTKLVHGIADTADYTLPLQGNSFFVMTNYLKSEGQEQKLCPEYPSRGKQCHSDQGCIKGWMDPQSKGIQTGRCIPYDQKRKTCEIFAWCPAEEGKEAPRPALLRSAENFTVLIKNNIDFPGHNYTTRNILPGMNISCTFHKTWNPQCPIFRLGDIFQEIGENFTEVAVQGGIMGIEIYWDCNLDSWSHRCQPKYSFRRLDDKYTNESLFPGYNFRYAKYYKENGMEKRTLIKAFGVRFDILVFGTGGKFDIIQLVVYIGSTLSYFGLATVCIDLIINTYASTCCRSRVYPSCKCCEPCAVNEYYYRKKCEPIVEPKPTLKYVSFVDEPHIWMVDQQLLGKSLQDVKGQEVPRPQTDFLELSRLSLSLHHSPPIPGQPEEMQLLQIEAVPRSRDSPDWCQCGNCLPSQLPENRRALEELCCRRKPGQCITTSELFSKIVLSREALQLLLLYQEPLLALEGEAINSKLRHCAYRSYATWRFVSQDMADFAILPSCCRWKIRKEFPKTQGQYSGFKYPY
Description: (§1) Structural determination of the full-length, wild-type rP2X7 was completed using a construct previously described containing no truncations or mutations ([16]). Furthermore, the rP2X7-WT construct used for electrophysiology experiments is unmodified full-length, wild-type rP2X7 with no green fluorescent protein (GFP), protease sites, or affinity tags present. The hP2X1-WT, hP2X2-WT, hP2X3-WT, hP2X4-WT, and hP2X7-WT constructs used for electrophysiology are similarly unmodified full-length, wild-type receptor constructs with no GFP, protease sites, or affinity tags present. Mutations to the rP2X7-WT construct used for electrophysiology experiments were made directly in the pcDNA3.1x plasmid. These constructs included the following: rP2X7-K297A, rP2X7-K297G, rP2X7-K297M, rP2X7-K297Q, rP2X7-K297V, rP2X7-Y298A, rP2X7-Y298G, rP2X7-Y298V, rP2X7-Y298L, rP2X7-R316A, rP2X7-R316G, rP2X7-R316Q, rP2X7-R316H, rP2X7-F88A, rP2X7-F103A, and rP2X7-Y295A.
(§2) To evaluate the inhibitory response of an antagonist for a dilution series, an initial excitatory signal was evoked at a subtype-specific concentration of ATP. Next, the antagonist was applied at a test concentration for 60 s and then coapplied at the same test concentration of the antagonist with the identical subtype-specific concentration of ATP. The antagonized signal was then normalized against the preceding excitatory signal evoked by ATP for each individual oocyte tested. The pre- and post-antagonist signals were evoked by 10 μM ATP for hP2X1, 10 μM ATP for hP2X2, 1 μM ATP for hP2X3, 50 μM ATP for hP2X4, and 100 μM ATP for P2X7. For the K297V mutation in rP2X7, pre- and post-antagonist signals were evoked by 300 μM ATP. Each dataset was then fit to a nonlinear regression named “[inhibitor] vs. response – Variable slope (four parameters)” in GraphPad Prism 9 to produce a sigmoidal curve and afford an IC50 value. Each singular condition was used to generate an average which is reported plus or minus its SD between three discrete trials.

rP2X7-F103A = target: T2, rP2X7-F103A (Rattus norvegicus, UniProt Q64663, F103A); experiment: TEVC inhibition dose-response, rP2X7-F103A mutant; format: cell-based; settings: for IC50: reduced expression and variable response to ATP, read-out: IC50 (inhibitory potency), F103A
T2 sequence (Q64663 1-595 F103A): T1 sequence (Q64663 1-595 F88A) with A88F, F103A
Description: as §1, §2

O=C(NCC1(N2CCN(c3ccccc3)CC2)CCOCC1)c1cccnc1Sc1ccccc1 [JNJ47965567]
IC50 (rP2X7-F88A): 0.8 ± 0.1 µM
inhibition at 625 nM, F103A (rP2X7-F103A; 625 nM antagonist): 50-80%

O=S(=O)(O)c1ccc(N=C2C=CC(=C(c3ccc(Nc4ccc(S(=O)(=O)O)cc4)cc3)c3ccc(Nc4ccc(S(=O)(=O)O)cc4)cc3)C=C2)cc1 [methyl blue]
IC50 (rP2X7-F88A): 5 ± 2 µM
inhibition at 30 µM (rP2X7-F103A; 30 µM antagonist): 50 to 75%

O=C(NCC12CC3CC(CC(C3)C1)C2)c1cc(CCCNCCCO)ccc1Cl [AZD9056]
IC50 (rP2X7-F88A): 0.13 ± 0.01 µM
IC50 (rP2X7-F103A): > 10 µM

Clc1cccc(-n2nnnc2NCc2ccccc2Oc2ccccn2)c1Cl [A839977]
IC50 (rP2X7-F88A): 1.9 ± 0.2 µM
IC50 (rP2X7-F103A): > 1 µM

CN1C(=O)CC[C@H]1C(=O)NCc1cccc(C(F)(F)F)c1Cl [GSK1482160]
IC50 (rP2X7-F88A): 13 ± 3 µM
IC50 (rP2X7-F103A): > 20 µM

Clc1cccc(-c2nnnn2Cc2cccnc2)c1Cl [A438079]
IC50 (rP2X7-F88A): 14 ± 1 µM
IC50 (rP2X7-F103A): > 10 µM
